According to patent US20140357512A1, “HISTONE DEACETYLASE (HDAC) BIOMARKERS IN MULTIPLE MYELOMA” (priority 2013, published 2014):

System: human myeloma cell line MM.1S
Experiment: SILAC acetylated-lysine peptide profiling, HDAC inhibitor vs DMSO (light/heavy ratio)
Assay type: cell-based
Excerpt: An embodiment of the invention comprises utilizing the SILAC method in order to quantitate changes in protein expression between two or more populations of cells. The SILAC method is a technique based on mass spectrometry that detects differences in protein abundance among samples using non-radioactive isotopic labeling. The SILAC method is known in the art, and described in detail in Ong et al., “Stable Isotope Labeling by Amino Acids in Cell Culture, SILAC, as a Simple and Accurate Approach to Expression Proteomics”, Molecular & Cellular Proteomics, vol. 1, pp. 376-386 (2002), which is incorporated herein by reference in its entirety.
Briefly, the SILAC method involves growing two populations of cells in cell culture. The first population of cells is grown in growth media containing normal amino acids (“normal media”). The second population of cells is grown in media lacking a standard essential amino acid (such as lysine), but is then supplemented with a non-radioactive, isotopically labeled form of that essential amino acid (such as lysine labeled with ^13C atoms, rather than normal ^12C atoms), which is called “heavy media”. When the two populations of cells are each growing in the medium, they incorporate the amino acids into all of their proteins. The growth of cells maintained in the heavy media is no different from that in normal media. All peptides containing the heavy amino acids are heavier than their normal counterparts. The cells from each of the two populations of cells are lysed. The lysates from each of the two cell populations are then combined. The combined cell lysates are then analyzed by mass spectrometry. Pairs of chemically identical peptides of different stable isotope composition can be differentiated in a mass spectrometer due to their difference in mass. The ratio of peak intensities in the mass spectrum for such peptide pairs reflects the abundance ratio for the two proteins.
This example describes SILAC studies that were performed to compare the effects of three different HDAC inhibitors (Compound A, Compound B, and tubastatin A) to a control on a human multiple myeloma cell line. The HDAC inhibitors were also compared amongst themselves to determine differences in their effects.
A human myeloma cell line MM.1S was grown using either ^12C (light) or ^13C (heavy) lysine containing culture medium. The “heavy” cells were treated with DMSO as the control, and the “light” cells were treated with a single HDAC inhibitor at 37° C. for 6 hours. The heavy and light cells were lysed, and the lysates were mixed in 1:1 ratio and digested with the protease trypsin. The acetylated lysine containing peptides (due to the action of the HDAC inhibitor) in the digested peptide pool were captured by a non-specific anti-acetylated lysine antibody cocktail (the antibodies identify both light and heavy acetylated peptides), and subjected to mass spectrometry analysis in order to identify thousands of individual peptides.
Thousands of peptides were identified in pairs (^12C and ^13C) due to their known mass differences. The amino acid sequence and quantitative ratio (Light/Heavy) of a given peptide in two differentially treated cell lysates were then determined and annotated with their possible protein (gene) sources.
As stated above, three HDAC inhibitors (Compound A, Compound B, and Tubastatin A) were used. Thus, the SILAC method was performed three times, with a different HDAC inhibitor compared to a control each time. Accordingly, there are three pairs of quantitative data in the table below, i.e., Compound A:DMSO, Compound B:DMSO, and Tubastatin A:DMSO. A cut-off of 1.30 fold of change (increase or decrease) was then used to determine “changed” or “+” in the table, and any peptides with a fold of change less than 1.3 fold were determined to be “unchanged” or “0” in the table. Those peptides that were not identified were marked as “NA” in the table. […]

## O=C(NO)c1cnc(NC2(c3cccc(F)c3)CCCCC2)nc1 [Compound B, 2-((1-(3-fluorophenyl)cyclohexyl)amino)-N-hydroxypyrimidine-5-carboxamide]
Acylphosphatase-2 [113], ACYP2, drug:DMSO
  light to heavy ratio (L/H ratio) of acetylated peptide TNFSNEK(ac)TISK (SEQ ID NO: 357): 0.84 log 2
Annexin A5 [76], gene ANXA5, drug:DMSO
  light to heavy ratio (L/H ratio), log 2 scale, acetylated peptide SELTGK(ac)FEK (SEQ ID NO: 778): 0.00
Annexin A6 [299], ANXA6, drug:DMSO
  light to heavy ratio (L/H ratio) of acetylated peptide TKYEK(ac)SLYSMIK (SEQ ID NO: 270): 0.00 log 2
Annexin A6 [478], ANXA6, drug:DMSO
  light to heavy ratio (L/H ratio) of acetylated peptide AINEAYK(ac)EDYHK (SEQ ID NO: 282): 0.00 log 2
Annexin A6 [607], ANXA6, drug:DMSO
  light to heavy ratio (L/H ratio) of acetylated peptide NKPLFFADK(ac)LYK (SEQ ID NO: 298): 0.00 log 2
Annexin A6 [620], gene ANXA6, inhibitor:DMSO
  light to heavy ratio (L/H ratio) of acetylated peptide GAGTDEK(ac)TLTR (SEQ ID NO: 621): 0.00 log 2
Annexin A6 [644], gene ANXA6, drug:DMSO
  light to heavy ratio (L/H ratio), log 2 scale, acetylated peptide EFIEK(ac)YDK (SEQ ID NO: 779): 0.00
Aspartate aminotransferase mitochondrial [73], gene GOT2, inhibitor:DMSO
  light to heavy ratio (L/H ratio) of acetylated peptide DDNGK(ac)PYVLPSVR (SEQ ID NO: 579): 0.00 log 2
Bactericidal/permeability-increasing protein [237], BPI, drug:DMSO
  light to heavy ratio (L/H ratio) of acetylated peptide LVGELK(ac)LDR (SEQ ID NO: 367): −0.52 log 2
Branched-chain-amino-acid aminotransferase [337], gene BCAT2, inhibitor:DMSO
  light to heavy ratio (L/H ratio) of acetylated peptide ELK(ac)EIQYGIR (SEQ ID NO: 540): 0.00 log 2
CALR [62], log 2 scale, drug vs DMSO
  L/H ratio of acetylated peptide FYGDEEK(ac)[…] (SEQ ID NO: 25): 0.00
CD59 glycoprotein [63], CD59, drug:DMSO
  light to heavy ratio (L/H ratio) of acetylated peptide AGLQVYNK(ac)CWK (SEQ ID NO: 260): 0.00 log 2
CHAFEK(ac)[…] (SEQ ID NO: 425), NADH dehydrogenase [ubiquinone] iron-sulfur protein 5 [38], NDUFS5
  L/H ratio of acetylated peptide: −0.63 log 2
CLTC [637], log 2 scale, drug vs DMSO
  L/H ratio of acetylated peptide […](ac)R (SEQ ID NO: 26): 0.00
COX4I1 [87], log 2 scale, drug vs DMSO
  L/H ratio of acetylated peptide FK(ac)ESFAEMNR (SEQ ID NO: 1): −0.67
CREBBP [1216], log 2 scale, drug vs DMSO
  L/H ratio of acetylated peptide […](ac)QLCTIPR (SEQ ID NO: 27): 0.00
CREBBP [1595:1597], log 2 scale, drug vs DMSO
  L/H ratio of acetylated peptide TNK(ac)NK(ac)SSISR (SEQ ID NO: 13): 0.62
CREM [240], log 2 scale, drug vs DMSO
  L/H ratio of acetylated peptide ALK(ac)DLYCHK (SEQ ID NO: 28): 0.00
CSNK2B [139], log 2 scale, drug vs DMSO
  L/H ratio of acetylated peptide LYCPK(ac)CMDVYTPK (SEQ ID NO: 29): 0.00
Calcium-binding mitochondrial carrier protein Aralar2 [379], gene SLC25A13, inhibitor:DMSO
  light to heavy ratio (L/H ratio) of acetylated peptide NSFDCFK(ac)K (SEQ ID NO: 605): 0.00 log 2
Calreticulin [55], CALR, drug:DMSO
  light to heavy ratio (L/H ratio) of acetylated peptide FVLSSGK(ac)FYGDEEKDK (SEQ ID NO: 281): 0.00 log 2
Calreticulin [159], CALR, drug:DMSO
  light to heavy ratio (L/H ratio) of acetylated peptide NVLINK(ac)DIR (SEQ ID NO: 257): 0.00 log 2
Chloride intracellular channel protein 1 [131], gene CLIC1, inhibitor:DMSO
  light to heavy ratio (L/H ratio) of acetylated peptide […](ac)GLLK (SEQ ID NO: 569): 0.00 log 2
Citrate synthase mitochondrial [459], CS, drug:DMSO
  light to heavy ratio (L/H ratio) of acetylated peptide SMSTEGLMK(ac)FVDSK (SEQ ID NO: 330): 0.76 log 2
Cofilin-1 [121], gene CFL1, drug:DMSO
  light to heavy ratio (L/H ratio), log 2 scale, acetylated peptide MIYASSK(ac)DAIKK (SEQ ID NO: 763): 0.00
Coiled-coil-helix-coiled-coil-helix domain-containing protein 3 mitochondrial [173], CHCHD3, drug:DMSO
  light to heavy ratio (L/H ratio) of acetylated peptide AAEEVEAK(ac)FK (SEQ ID NO: 328): −0.42 log 2
Conserved hypothetical protein [484], gene KIAA0947, inhibitor:DMSO
  light to heavy ratio (L/H ratio) of acetylated peptide ASEIGEK(ac)YR (SEQ ID NO: 586): 0.00 log 2
Cytochrome b-c1 complex subunit 6 mitochondrial [85], gene UQCRH, inhibitor:DMSO
  light to heavy ratio (L/H ratio) of acetylated peptide DHCVAHK(ac)LFNNLK (SEQ ID NO: 608): 0.00 log 2
D-beta-hydroxybutyrate dehydrogenase mitochondrial [280], gene BDH1, inhibitor:DMSO
  light to heavy ratio (L/H ratio) of acetylated peptide YFDEK(ac)IAK (SEQ ID NO: 563): 0.00 log 2
DAZAP1 [59], log 2 scale, drug vs DMSO
  L/H ratio of acetylated peptide FK(ac)[…] (SEQ ID NO: 30): 0.00
DDOST [189], log 2 scale, drug vs DMSO
  L/H ratio of acetylated peptide APTIVGK(ac)SSLNPILFR (SEQ ID NO: 31): 0.00
DDX5 [388], log 2 scale, drug vs DMSO
  L/H ratio of acetylated peptide DWVLNEFK(ac)HGK (SEQ ID NO: 33): 0.00
